The subject of test [1] is Src family kinase. Nature of the test: Immunoblot of HEK293 cells treated with Src family kinase inhibitor. Type of test: cell-based, human. As to conditions: asynchronously growing HEK293 cells. How it is done: FIG. 7E is a photograph of immunoblot data of lysates following treatment of asynchronously growing HEK293 cells with Sic family kinase (SFK) specific inhibitor SU6656 in starved or serum-fed cells.
Lysates were resolved on 4 to 12% SDS/PAGE, transferred onto Potran membranes (Whatman), blocked with 3% milk in TBST (Tris Buffered Saline Tween-20), incubated with 1:1,000 dilution of primary antibody at 4° C. overnight, washed, and incubated with a 1:5,000 dilution of second antibody (HRP-conjugated) with 3% milk in TBST for 1 h at room temperature. Bands were visualized with ECL solution (Roux et al. 2004 Proc Natl Acad Sci USA 101: 13489-[…]).
To further investigate whether this is a Src-dependent site in vivo, asynchronously growing HEK293 cells were treated with the specific Src family kinase inhibitor, Su6656. […] Further, MCF10A cells expressing v-Src:estrogen receptor (Reginato et al. 2005 Mol Cell Biol 25: 4591-4601) were treated with 1 μM 4-hydroxytamoxifen (4-HT) to activate v-Src as a function of time (FIG. 7F).

Test [2] has as its system HeLa cell lysates. Nature of the test: KAYAK in vitro kinase assay, lysates of asynchronous, G1/S- or G2/M-arrested HeLa cells. Type of test: biochemical, human. How it is done: For cell cycle examples, HeLa cells were synchronized by double thymidine block for G1/S-arrest and by 0.2 μg/ml nocodazole for G2/M-arrest as described (Dephoure et al. 2008 Proc Natl Acad Sci USA 105: 10762-10767). Synchronization was confirmed by flow cytometry.
For cell lysis, the media were removed, and cells were washed with ice-cold phosphate-buffered saline (PBS) and lysed with ice-cold lysis buffer (10 mM K2HPO4 pH 7.5, 1 mM EDTA, 10 mM MgCl2, 50 mM β-glycerophosphate, 5 mM EGTA, 0.5% Nonidet P-40, 0.1% Brij 35, 0.1% deoxycholic acid, 1mM sodium orthovanadate, 1mM phenylmethyl-sulfonyl fluoride, 5 μg/ml leupeptin and 5 μg/ml pepstatin A). Lysates were centrifuged at 10,000 rpm for 10 min to remove cell debris, and clear supernatant was used for immunoblotting and in vitro kinase assays. Protein concentration was determined by Bradford assay (Biorad, Hercules, Calif.).
Peptides were synthesized, purified and quantified as described in Yu et al. 2009 Proc Natl Acad Sci USA 106: 11606-11611, hereby incorporated by reference herein in its entirety. Each substrate peptide (250 pmol) was mixed to a final concentration of 5 μM in the 50 μL reaction mixture. Alternatively, reactions were performed using 6 μg cell lysate aliquotes mixed to a final volume of 20 μl. Cell lysate or other kinase source was added to the substrate mixture in 25 mM Tris-Cl, pH 7.5, containing 5 mM ATP, 7.5 mM MgCl2, 0.2 mM EGTA, 7.5 mM β-glycerophosphate, 0.1 mM Na3VO4, and 0.1 mM DTT. The reaction was incubated at 25° C. for 60 min and then terminated by the addition of 100 μl of 1% trifluoroacetic acid (TFA) containing a known amount of an internal standard (typically 20 pmol). Alternatively, the reaction was incubated at 20° C. for 45 min before termination with TFA.
Forty-five individual in vitro kinase reaction mixtures were combined and desalted by using Sep-Pak C18 cartridge (Waters, Milford, Mass.). Phosphopeptides were enriched by immobilized metal ion chromatography (IMAC) with 20 μl of beads (Phos-Select iron affinity gel; Sigma, St. Louis, Mo.) and subsequently desalted by using Empore C18 solid phase extraction disks (3M, St. Paul, Minn.) as described previously.
Quantitation of the target peptide-internal standard ratios was performed by first constructing the extracted ion chromatogram for the most abundant charge state for each peptide using a ±10 ppm window. Chromatograms were integrated using Qual/Quan browser (Xcalibur 2.0.5, Thermo Fisher, San Jose, Calif.). Since the phosphorylated peptides generated from the in vitro kinase reactions were chemically identical to the internal standards, they were assumed to have the same ionization efficiency. Therefore, the amount of each phosphorylated peptide was calculated by direct ratio to the internal standard level.
To test substrate suitability in a multiplexed assay, the phosphorylation activities were measured using […] of each substrate peptide, 6 μg lysate, and 5 mM ATP in a plate format. Reactions proceeded for 60 minutes followed by acidification and the addition of isotope-labeled reference peptides. After pooling 45 samples, phosphopeptide enrichment was followed by liquid-chromatography (LC) separation and on-line peptide detection by high-resolution mass spectrometry.
In order to examine target peptides with cell-cycle-dependent phosphorylation, kinase activities in asynchronously growing HeLa cells were profiled and the profiles were compared with those of cells synchronized in G1/S and G2/M phase using a double-thymidine block and nocodazole arrest, respectively (FIG. 3B).

Test [3] concerns the target T1, Src (Homo sapiens, UniProt P12931).
T1 construct: Src (full length); purchased Cell Signaling Technology (Danvers, Mass.)
The test can be described thus: In vitro kinase reaction of H5 peptide with purified Src. In kind it is biochemical. The source says:
(§1) FIG. 7D is a line graph showing in vitro phosphorylation of peptide H5 (SEQ ID NO: 87) using each of purified Src and EGFR.
(§2) Purified human active kinases of Akt1 (full length), extracellular signal-regulated kinase 1 (ERK1, 1-379), mitogen-activated protein kinase kinase 1 (MEK1, 1-393), 90 kDa ribosomal S6 kinases 1 (RSK1, 1-735), cAMP-dependent protein kinase (PKA) catalytic subunit-α (PKA Cα, 1-351), protein kinase Cα (PKCα, full length), epidermal growth factor (EGF) receptor (EGFR, 672-1210), platelet-derived growth factor (PDGF) receptor α (PDGFRα, 550-1090), vascular endothelial growth factor (VEGF) receptor 1 (VEGFR1 784-1338), Src (full length), casein kinase 2 (CK2, full length), Aurora A (1-403), AMP-activated protein kinase α1β1γ1 (AMPK α1β1γ1, full length), glycogen synthase kinase-3α (GSK-3α, 1-483) and MAP/microtubule affinity-regulating kinase 1 (MARK 1, full length) were obtained from Cell Signaling Technology (Danvers, Mass.). Cdc2/cyclin B1 (full length) and insulin-like growth factor (IGF)-I receptor (IGFIR, 959-1367) were obtained from Upstate (Temecula, Calif.).
(§3) In order to identify the kinase that phosphorylates p55 (Tyr-199) lysates of serum-starved HEK293 cells were used for insulin, IGF and EGF stimulation. […]

Test [4] concerns the target T2, EGFR (Homo sapiens, UniProt P00533).
T2 construct: epidermal growth factor (EGF) receptor (EGFR, 672-1210); purchased Cell Signaling Technology (Danvers, Mass.)
The test can be described thus: In vitro kinase reaction of H5 peptide with purified EGFR. Type of test: biochemical.
From the text: as §1, §2, §3

Consider `CN(C)S(=O)(=O)c1ccc2c(c1)/C(=C/c1cc3c([nH]1)CCCC3)C(=O)N2` [Su6656, SU6656], for which, in test [1], the “level of phospho-Src (Tyr-416)” value is given as “diminished” and the “level of phospho-p55 (Tyr-199)” value was “diminished”.
As to “EYDRLYEEYTPFR (The sequence was designed and synthesized) [H5]”, the “increase in phosphorylation in G2/M” value in test [2] (G2/M (nocodazole-arrested) HeLa lysate vs asynchronously growing cells) came out at 13 fold. Further, the “G2/M: changed phosphorylation” value in test [2] (G2/M phase compared to asynchronously growing HeLa cells) is “++ (A change of more than +4 and −4 fold is indicated by “++” and “−−”, respectively.)”. Further, the “phosphorylation by Src” value in test [3] is reported as “robust phosphorylation”. Besides, the “phosphorylation by EGFR” value in test [4] is “not”.
